Measured values as given in ChEMBL document CHEMBL3832761, “MMV Pathogen Box Bioactivity Data” (2017).
Each block holds one compound with its values, some of them ahead of it. Calls of active or inactive are those of the source. The calls are words filed in the database; no cut-off is given here.

How the values were obtained:
Toxoplasma gondii [1] = assay: AntiToxoplasma gondii activity data 2-day killing assay: inhibition at 10 uM (%) Experiment C; assay type: functional; settings: 48 h
Toxoplasma gondii [2] = assay: AntiToxoplasma gondii activity data Inhibition of plaque forming efficiency (%) Experiment A; assay type: functional; parameters: concentration or dose not given beside the values
Toxoplasma gondii [3] = assay: AntiToxoplasma gondii activity data 2-day killing assay: IC50 (uM), Experiment F; assay type: functional, organism-based
Toxoplasma gondii [4] = assay: AntiToxoplasma gondii activity data 2-day killing assay: IC50 (uM), Experiment G; assay type: functional, organism-based
Toxoplasma gondii [5] = assay: AntiToxoplasma gondii activity data 2-day killing assay: inhibition at 10 uM (%) Experiment D; assay type: functional
[6] = HL60 CC50 (uM) Cytotoxicity; assay type: functional; settings: HL-60
Toxoplasma gondii [7] = assay: AntiToxoplasma gondii activity data 2-day killing assay: inhibition at 10 uM (%) Experiment E; assay type: functional
Toxoplasma gondii [8] = assay: AntiToxoplasma gondii activity data Inhibition of plaque forming efficiency (%) Experiment B; assay type: functional; parameters: concentration or dose not given beside the values
Leishmania donovani [9] = assay: AntiLeishmania activity L. donovani (macrophages) IC50 (uM); assay type: functional, organism-based
L6 = assay: L6 CC50 (uM) Cytotoxicity; assay type: functional; settings: Rattus norvegicus
Trypanosoma brucei [10] = assay: AntiTrypanosoma brucei activity T. b. rhodesiense IC50 (uM); assay type: functional, organism-based
HepG2 = assay: Cytotoxicity data HepG2 CC20 (uM); assay type: functional
Leishmania donovani [11] = assay: AntiLeishmania activity L. donovani (axenic) IC50 (uM); assay type: functional, organism-based
Leishmania major = assay: AntiLeishmania activity L. major IC50 (uM); assay type: functional, organism-based
Leishmania infantum = assay: AntiLeishmania activity L. infantum (macrophages) IC50 (uM); assay type: functional, organism-based
Trypanosoma brucei [12] = assay: AntiTrypanosoma brucei activity T. b. brucei IC50 (uM); assay type: functional, organism-based
[13] = PMM CC50 (uM) Cytotoxicity; assay type: functional; settings: Macrophage
Leishmania = assay: AntiLeishmania activity Toxicity on infected PMM (uM); assay type: functional
Trypanosoma cruzi = assay: AntiTrypanosoma cruzi activity IC50 (uM); assay type: functional, organism-based
MRC5 = assay: MRC5 CC50 (uM) Cytotoxicity; assay type: functional; settings: Homo sapiens
Cryptosporidium parvum [14] = assay: AntiCryptosporidium parvum activity Compounds added 3h after t0, IC 50 (uM); assay type: functional, organism-based
Cryptosporidium parvum [15] = assay: AntiCryptosporidium parvum activity Compounds added at t0, IC 50 (uM); assay type: functional, organism-based
Schistosoma mansoni [16] = assay: AntiSchistosoma mansoni activity Newly Transformed Schistosomula: inhibition at 10 uM at 72h (%); assay type: functional
Schistosoma mansoni [17] = assay: AntiSchistosoma mansoni activity Juveniles IC50 (uM); assay type: functional, organism-based
Schistosoma mansoni [18] = assay: AntiSchistosoma mansoni activity Adults IC50 (uM); assay type: functional, organism-based
Schistosoma mansoni [19] = assay: AntiSchistosoma mansoni activity Newly Transformed Schistosomula: IC50 at 72h (uM); assay type: functional, organism-based
Schistosoma mansoni [20] = assay: AntiSchistosoma mansoni activity Adults: Effect at 10 uM after 48h; assay type: functional, organism-based
Schistosoma mansoni [21] = assay: AntiSchistosoma mansoni activity Larva IC50 (uM); assay type: functional, organism-based
Brugia pahangi = assay: AntiBrugia pahangi activity Average inhibition motility at 10 uM (%); assay type: functional
Onchocerca ochengi [22] = assay: AntiOnchocerca activity O. ochengi adult females: final mean inhibition motility at 10 uM on Day 7 (%); assay type: functional
Onchocerca gutturosa [23] = assay: AntiOnchocerca activity O. gutturosa adult males: MTT reduction at 12.5 uM (%); assay type: functional; parameters: scale not given: the % may be the effect or the level left
Onchocerca gutturosa [24] = assay: AntiOnchocerca activity O. gutturosa adult males: Motility reduction at 12.5 uM (%); assay type: functional; parameters: scale not given: the % may be the effect or the level left
Onchocerca lienalis = assay: AntiOnchocerca activity O. lienalis microfilariae Motility reduction (%); assay type: functional; parameters: concentration or dose not given beside the values
Onchocerca volvulus = assay: AntiOnchocerca activity O. volvulus L3 Molting assay: inhibition at 10 uM (%); assay type: functional
Onchocerca ochengi [25] = assay: AntiOnchocerca activity O. ochengi adult males: final mean inhibition motility at 10 uM on Day 5 (%); assay type: functional

Structure (SMILES): CS(=O)(=O)N1CCC(CCn2nc(Cc3cccc4ccccc34)c3c(N)ncnc32)CC1
inhibition at 10 µM (Toxoplasma gondii [1]): 0%
Inhibition (Toxoplasma gondii [2]): 100%
IC50 (Toxoplasma gondii [3]): no inhibition
IC50 (Toxoplasma gondii [4]): no inhibition
Inhibition (Toxoplasma gondii [5]): 63.9%
CC50 [6]: > 50 µM
Inhibition (Toxoplasma gondii [7]): 20.6%
Inhibition (Toxoplasma gondii [8]): 100%

Structure (SMILES): Cc1nc(-c2ccccn2)nc(N2CCC(Cc3ccccc3)C2)c1Cl (configuration not stated)
IC50 (Leishmania donovani [9]): 4.2 µM
CC50 (L6): 15.2 µM
IC50 (Trypanosoma brucei [10]): 5.62 µM
CC20 (HepG2): 10.2 µM
IC50 (Leishmania donovani [11]): 0.03 µM
IC50 (Leishmania major): 8.96 µM
IC50 (Leishmania infantum): 4.03 µM
IC50 (Trypanosoma brucei [12]): 6.61 µM
CC50 [13]: 16 µM
Toxicity on infected macrophages (Leishmania): 16.7 µM
IC50 (Trypanosoma cruzi): 0.97 µM
CC50 (MRC5): 15.5 µM

Structure (SMILES): COc1ccc(OC)c(NCc2ccc3nc(N)nc(N)c3c2Cl)c1
CC20 (HepG2): 3.44 µM
IC50 (Cryptosporidium parvum [14]): 3.98 µM
CC50 [6]: > 25 µM
IC50 (Cryptosporidium parvum [15]): 0.1 µM

Structure (SMILES): Cc1[nH]c2ccccc2c1C(c1cccs1)N1CCN(C)CC1 (configuration not stated)
Inhibition (Schistosoma mansoni [16]): 100%
IC50 (Schistosoma mansoni [17]): 3.8 µM
IC50 (Schistosoma mansoni [18]): 7.2 µM
CC20 (HepG2): 8.46 µM
IC50 (Schistosoma mansoni [19]): 0.29 µM
CC50 (MRC5): > 20 µM

Structure (SMILES): COCC(C)NC(=O)CSc1ncnc2sc(-c3ccccc3)cc12 (configuration not stated)
Inhibition (Schistosoma mansoni [16]): 50%
CC20 (HepG2): >80 µM
Activity (Schistosoma mansoni [20]): inactive

Structure (SMILES): COc1ccc(N(CCc2cccc(C)n2)C(C)=O)cc1
Inhibition (Brugia pahangi): 6%
Inhibition (Onchocerca ochengi [22]): 0%
CC20 (HepG2): >80 µM
Activity (Onchocerca gutturosa [23]): 29.6%
Activity (Onchocerca gutturosa [24]): 35.7%
Activity (Onchocerca lienalis): 13.3%
CC50 [6]: > 50 µM
Inhibition (Onchocerca volvulus): 88%
Inhibition (Onchocerca ochengi [25]): 6%

Structure (SMILES): c1ccc(-c2[nH]c3ccccc3c2C(c2ccccn2)N2CCCC2)cc1 (configuration not stated)
Inhibition (Schistosoma mansoni [16]): 100%
IC50 (Schistosoma mansoni [17]): 2.5 µM
IC50 (Schistosoma mansoni [18]): 3.2 µM
CC20 (HepG2): 1 µM
IC50 (Schistosoma mansoni [21]): 0.5 µM
IC50 (Schistosoma mansoni [19]): 0.51 µM
CC50 (MRC5): 86 µM

Structure (SMILES): CS(=O)(=O)N1CCC(Cn2nc(Cc3cccc4ccccc34)c3c(N)ncnc32)CC1
CC20 (HepG2): 53 µM
IC50 (Cryptosporidium parvum [14]): > 10 µM
CC50 [6]: 47.3 µM
IC50 (Cryptosporidium parvum [15]): 0.1 µM

Structure (SMILES): Cc1ncc(-c2ccnc(Nc3ccc(S(C)(=O)=O)cc3)n2)n1C(C)C [AZD-5438]
IC50 (Trypanosoma brucei [10]): < 0.13 µM
CC20 (HepG2): 0.18 µM
IC50 (Leishmania major): 3.15 µM
IC50 (Leishmania infantum): 1.15 µM
IC50 (Trypanosoma brucei [12]): 0.26 µM
CC50 [13]: 4 µM
IC50 (Trypanosoma cruzi): 1.08 µM
CC50 (MRC5): 1 µM

Second part, led by results:

IC50 (Schistosoma mansoni [17]): 4.05 µM
IC50 (Schistosoma mansoni [18]): 2 µM
Structure (SMILES): Cc1nn(C(=O)Nc2cccc(C(F)(F)F)c2)c(C)c1Sc1ncccn1
Inhibition (Schistosoma mansoni [16]): 33.3%
CC20 (HepG2): 30.7 µM
Activity (Schistosoma mansoni [20]): Active

IC50 (Schistosoma mansoni [17]): 4 µM
IC50 (Schistosoma mansoni [18]): 1.6 µM
IC50 (Schistosoma mansoni [19]): 5.69 µM
Structure (SMILES): COc1ccc(-c2nnc3ccc(-c4cccc(C(C)C)c4)cn23)cc1OC
Inhibition (Schistosoma mansoni [16]): 79%
CC20 (HepG2): 7.5 µM
IC50 (Schistosoma mansoni [21]): 6.6 µM
Activity (Schistosoma mansoni [20]): Active
CC50 (MRC5): 18.6 µM

IC50 (Cryptosporidium parvum [14]): 13.9 µM
IC50 (Cryptosporidium parvum [15]): 0.5 µM
Structure (SMILES): COc1ccc(-c2nn(C(C)C)c3ncnc(N)c23)cc1OC
CC20 (HepG2): 1.63 µM
CC50 [6]: 25.1 µM

IC50 (Schistosoma mansoni [19]): 0.43 µM
Structure (SMILES): Cn1ncc2c(N3CCOCC3)nc(NCCc3c[nH]c4ccccc34)nc21 [TDR79432]
Inhibition (Schistosoma mansoni [16]): 88%
CC20 (HepG2): 4.63 µM
Activity (Schistosoma mansoni [20]): Active

IC50 (Schistosoma mansoni [17]): 3.7 µM
IC50 (Schistosoma mansoni [19]): 0.15 µM
Structure (SMILES): CNc1nnc(Sc2cnn(-c3ccccc3)c(=O)c2Cl)s1
Inhibition (Schistosoma mansoni [16]): 100%
CC20 (HepG2): 1.55 µM

IC50 (Cryptosporidium parvum [14]): 1.51 µM
IC50 (Cryptosporidium parvum [15]): > 5 µM
Structure (SMILES): Clc1ccc(-n2cc(COc3ccnc4ccccc34)nn2)cc1
CC20 (HepG2): 13.6 µM
CC50 [6]: > 50 µM

IC50 (Trypanosoma brucei [10]): 0.96 µM
IC50 (Leishmania major): 8.51 µM
IC50 (Leishmania infantum): 2.54 µM
IC50 (Trypanosoma brucei [12]): 3.78 µM
IC50 (Trypanosoma cruzi): 3.81 µM
Structure (SMILES): CN1CCN(S(=O)(=O)c2ccc(-c3ccc4c(Nc5ncc(Cl)cn5)ccnc4c3)cc2)CC1
CC20 (HepG2): 8 µM
CC50 [13]: 4 µM
CC50 (MRC5): > 32 µM

IC50 (Cryptosporidium parvum [14]): 0.68 µM
IC50 (Cryptosporidium parvum [15]): < 0.1 µM
Structure (SMILES): COc1cc(NC(=O)Cc2nn(C)c(=O)c3ccccc23)ccc1Cl
CC20 (HepG2): >80 µM
CC50 [6]: > 50 µM
